The target in test [1] is T1, CRM1^HA (Mus musculus, UniProt Q6P5F9, L431A/V430A/V432A).
T1 construct: His-ZZ (cleaved yes); made in house; host or cells: Escherichia coli BL21-CodonPlus (DE3)
The settings on record: previously described, CRM1^HA binding to YFP-PKI(NES); cited from earlier work. From the text: We next used the TFP-(NES) constructs to monitor CRM1^HA binding to each motif, using the change in fluorescence anisotropy upon complex formation as a readout (Fig 4B), as previously described.

Test [2] deals with T1, CRM1^HA. Briefly: Isothermal titration calorimetry, CRM1^HA / NES. The test is classed as binding. The following applies: ITC, 20°C; for Kd: read-out: KD. The method, then:
Isothermal titration calorimetry (ITC)
ITC measurements were carried out using a VIP-ITC MicroCalorimeter (MicroCal, Inc., Northampton, MA). TFP and YFP constructs, as well as CRM1^HA, were dialyzed in a buffer containing 20 mM HEPES, pH 7.4, 50 mM NaCl, 1 mM TCEP, 1 mM MgCl2, and degassed prior to the experiment. Untagged peptides (AS: QDLCLAVEEVSLRK, AL: EAIQDLCLAVEEVSLRK, ES: QDLWQSLAQVSLRK and EL: EAIQDLWQSLAQVSLRK), N-acetylated and 95% pure, were purchased from Proteogenix (Schiltigheim, France) and resuspended in the ITC buffer. Measurements were performed at 20°C. TFP-NES, YFP-NES or NES peptides at 35–180 μM were titrated onto CRM1^HA at 2–14 μM. Injections of 6 μL were performed at 320 seconds interval (the first injection always was of 1 μL and is not considered in data analysis). To determine the thermodynamic parameters of NPM / importin interaction, importin α, importin Δα or importin α/β at 45–60 μM were titrated onto NPM (1–1.2 μM pentamer) in 50 mM Tris/HCl, pH 7.5, 100 mM NaCl, 2 mM TCEP, and 10% glycerol. […] “Reverse” titrations, where 20–30 μM NPM was titrated onto 7–10 μM of the different importins were also performed and yielded similar results.
The reaction heat of each injection is related to the calorimetric enthalpy of binding, ΔH^0. The binding isotherms, ΔH^0 vs. molar ratio, were analyzed with an independent binding sites model using MicroCal Origin software. The fit of the binding curve yields the binding constant KA (KD = 1/KA) and the enthalpy ΔH^0 of the binding reaction. The Gibbs free energy of binding ΔG^0 and the entropy ΔS^0 are determined from the basic thermodynamic expressions: ΔG^0 = -RTlnKA = ΔH^0−TΔS^0, where R and T are the gas constant and the absolute temperature, respectively.
Fig 5 Analysis of CRM1^HA/TFP-NES interaction by ITC. Isothermal titration of CRM1^HA with TFP-mutE(NES). […] The titration of negative control TFP-Cter (180 μM) onto CRM1^HA (14 μM) (circles) is also shown for comparison.

The target in test [3] is T1, CRM1^HA. Nature of the test: Ni-NTA chromatography of TFP-NES / CRM1^HA complex formation. It is filed as binding. The following applies: 2.5 mg His-tagged TFP construct on 1 mL Histrap FF, 1 mL CRM1^HA 18 μM; 50 mM Tris/HCl pH 8.0, 500 mM NaCl; SDS-PAGE. From the text:
Although the relative potency of the NESs acquired by the different NPM mutants has been compared using an in vivo export assay, their CRM1-binding affinities have not yet been determined. We cloned the NESs of mutant A and E as C-terminal fusions to a teal fluorescent protein (TFP) (Fig 4A). As a reference, we generated an equivalent construct with the well-characterized NES of protein kinase inhibitor (PKI). We first tested the binding of CRM1^HA to the TFP-NES constructs using Ni-NTA chromatography. His-tagged TFP constructs were bound to the Ni-NTA column, and an excess of untagged CRM1^HA was then injected (S4 Fig).
Supplementary file pone.0130610.s004.tif: S4 Fig TFP-NES / CRM1^HA complex formation shown by Ni-NTA chromatography. 2.5 mg of the His-tagged TFP construct were loaded on a 1 mL Histrap FF (GE Healthcare) in buffer 50 mM Tris/HCl, pH 8.0, 500 mM NaCl, 1 mM TCEP, 2 mM MgCl2, 5% glycerol, containing 15 mM imidazole. After washing with the same buffer, 1 mL of CRM1^HA at 18 μM was injected at 0.1 mL/min flow rate. Unbound CRM1^HA was collected, and then bound proteins were eluted with 2 M imidazole. SDS-PAGE of elution fractions: Unbound (free) CRM1^HA and the fraction eluted with imidazole, containing both the His-tagged TFP construct along with bound CRM1^HA. (TIF) Click here for additional data file.

Another test has as its system wild type CRM1. Briefly: Fluorescence anisotropy binding assay, wild type CRM1. The settings on record: TFP-PKI 50 nM, 25°C, 20 mM Tris/HCl pH 7.4, wild type CRM1, compared with CRM1^HA. On the set-up: species or system mouse. From the text:
For recombinant production in E. coli, we subcloned wild type NPM, as well as mutants A and E, as N-terminal (His)10 –ZZ tagged constructs in pTG-A20 vector [22]. The original clone of wild type mouse CRM1, N-terminally fused to a His—ZZ tag was a kind gift of Dr. Dirk Görlich (Max Planck Institute for Biophysical Chemistry, Göttingen). We generated the high affinity CRM1 mutant (CRM1^HA) from a clone provided by Dr. Murray Stewart (MRC Laboratory of Molecular Biology, Cambridge). […]
(§1) Fluorescence anisotropy binding assays
To estimate CRM1 binding affinities for NES motifs we monitored binding with a fluorescence-polarization assay based on previously described approaches. The increase in fluorescence anisotropy of TFP/YFP when the TFP/YFP-NES construct (50 nM) binds to 0–60 μM CRM1 (either CRM^HA or wild type) was recorded at 25°C with a 8100 SLM-Aminco spectrofluorometer in buffer 20 mM Tris/HCl, pH 7.4, 50 mM NaCl, 5 mM DTT, 2 mM MgCl2. […]
Fig 4 Binding of CRM1 to TFP-NES constructs. […] Fraction bound was calculated from the relative increase in fluorescence anisotropy of TFP (λexc 463 nm, λem 500 nm). […]
We next used the TFP-(NES) constructs to monitor CRM1^HA binding to each motif, using the change in fluorescence anisotropy upon complex formation as a readout (Fig 4B), as previously described. […]
In general terms: Fluorescence polarisation rises when a labelled molecule tumbles more slowly, as on binding a larger partner.

Test [4] has as its target T1, CRM1^HA. Briefly: Fluorescence anisotropy binding assay, CRM1^HA. The following applies: 0–60 μM CRM1^HA, 25°C. As to the method:
as §1
To estimate CRM1 binding affinities for NES motifs we monitored binding with a fluorescence-polarization assay based on previously described approaches. The increase in fluorescence anisotropy of TFP/YFP when the TFP/YFP-NES construct (50 nM) binds to 0–60 μM CRM1 (either CRM^HA or wild type) was recorded at 25°C with a 8100 SLM-Aminco spectrofluorometer in buffer 20 mM Tris/HCl, pH 7.4, 50 mM NaCl, 5 mM DTT, 2 mM MgCl2. Excitation and emission wavelengths were 463, 500 nm for TFP and 463, 533 nm for YFP, and slits width 4 and 8 nm, respectively.
Fig 4 Binding of CRM1 to TFP-NES constructs. (A) Scheme of the engineered TFP constructs, showing the sequence of the NES motifs. Φ residues are highlighted in red. (B) Titration of CRM1 onto the different TFP constructs (50 nM), at 25°C, in buffer 20 mM Tris/HCl, pH 7.4, 50 mM NaCl, 5 mM DTT, 2 mM MgCl2: Left panel: Binding of CRM1^HA (solid symbols) or wild type CRM1 (empty symbols) to TFP-PKI(NES). Right panel: Binding of CRM1^HA to TFP-mutE(NES) (triangles) and TFP-mutA(NES) (squares). Fraction bound was calculated from the relative increase in fluorescence anisotropy of TFP (λexc 463 nm, λem 500 nm). Error bars correspond to at least three measurements per CRM1 concentration.
We next used the TFP-(NES) constructs to monitor CRM1^HA binding to each motif, using the change in fluorescence anisotropy upon complex formation as a readout (Fig 4B), as previously described. […] The different nature of the fluorescent tag, and/or the linker between the fluorescent protein and the NES (2 residues longer in the YFP-PKI construct) could explain the discrepancy. […] To isolate the CRM1 / NES interaction under study from the influence of the tag protein, we have also conducted binding assays with peptides corresponding to the NES motifs (see below).

A further test addresses importin α/β. The settings on record: importin α/β binding of nucleoplasmin; cited from earlier work. From the text:
Our study has explored the molecular determinants of both NPM export (CRM1/NES) and import (importin α/β/NLS). […] This lower affinity could be related to the fact that NPM NLS includes one basic residue less in the major cluster of the bipartite motif than NP NLS. […] This, together with the very low affinity of CRM1 for wild type NPM and significant avidity for nucleolar comp ...

The subject of the next test is CRM1. The settings on record: cited from earlier work. From the text: Two sequence motifs in the core domain of NPM (residues 42–61 and 94–102) (Fig 1) have been investigated as candidate NESs. In addition, we have detected a further putative NES in the C-terminal region (see below). However, it is still unclear to what extent any of these sequences represents NPM physiological NESs.

Setting [5] is: NES ligand (35–180 μM) titrated onto CRM1^HA (2–14 μM), 20 mM HEPES pH 7.4, 50 mM NaCl, 1 mM TCEP, 1 mM MgCl2, independent binding sites model.

Where two headings read alike, the source gives them in different places.

T1 sequence (Q6P5F9 1-1062 V430A/L431A/V432A limits assumed): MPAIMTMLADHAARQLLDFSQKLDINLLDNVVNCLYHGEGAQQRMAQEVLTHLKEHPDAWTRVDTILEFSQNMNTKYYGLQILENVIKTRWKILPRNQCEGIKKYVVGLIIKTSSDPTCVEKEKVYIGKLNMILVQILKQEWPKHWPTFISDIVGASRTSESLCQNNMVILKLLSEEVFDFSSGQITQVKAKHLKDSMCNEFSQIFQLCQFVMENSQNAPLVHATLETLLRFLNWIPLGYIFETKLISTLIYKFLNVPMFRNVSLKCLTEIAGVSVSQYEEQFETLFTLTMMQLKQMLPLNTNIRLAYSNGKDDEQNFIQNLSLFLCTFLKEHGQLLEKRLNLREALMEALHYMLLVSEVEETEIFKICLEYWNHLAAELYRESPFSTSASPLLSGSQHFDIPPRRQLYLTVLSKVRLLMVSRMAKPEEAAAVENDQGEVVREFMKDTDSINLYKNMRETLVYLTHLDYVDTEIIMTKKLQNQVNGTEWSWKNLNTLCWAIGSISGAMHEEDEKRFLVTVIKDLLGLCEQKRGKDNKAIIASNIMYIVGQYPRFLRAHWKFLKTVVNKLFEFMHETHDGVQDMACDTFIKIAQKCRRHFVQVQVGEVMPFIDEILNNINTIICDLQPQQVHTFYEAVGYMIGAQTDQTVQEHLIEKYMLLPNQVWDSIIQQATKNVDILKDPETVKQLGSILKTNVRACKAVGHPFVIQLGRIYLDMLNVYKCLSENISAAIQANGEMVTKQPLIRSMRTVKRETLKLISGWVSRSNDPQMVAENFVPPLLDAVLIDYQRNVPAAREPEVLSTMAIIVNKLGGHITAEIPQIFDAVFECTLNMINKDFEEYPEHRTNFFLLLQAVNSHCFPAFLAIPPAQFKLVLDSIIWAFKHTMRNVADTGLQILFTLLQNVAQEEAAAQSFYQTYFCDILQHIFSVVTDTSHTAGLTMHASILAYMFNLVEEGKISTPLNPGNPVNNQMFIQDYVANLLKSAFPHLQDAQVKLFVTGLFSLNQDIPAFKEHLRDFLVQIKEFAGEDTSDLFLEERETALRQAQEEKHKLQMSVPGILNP

Consider “YFP-PKI(NES): previously described YFP-PKI(NES) construct (LALKLAGLDI; fusion to YFP (carrier omitted); linker stated to be 2 residues longer than in TFP construct) [reference compound]”, for which the Kd with CRM1^HA [1] was 25 nM; in the test with CRM1^HA [2] (setting [5]) it was 18 ± 3 nM.
As to LALKLAGLDI [TFP-PKI(NES)], the “CRM1^HA binding in Ni-NTA chromatography” value on CRM1^HA [3] is “stronger than its binding to TFP- mutE(NES)”. In the test with wild type CRM1, the “binding of wild type CRM1” value was “much weaker than that of CRM1^HA”.
For the substance “DLCLAVEEVSLRK [TFP-mutA(NES), NES of NPM mutant A as C-terminal fusion to teal fluorescent protein]”, the Kd came to 5000 nM at CRM1^HA [4] (TFP-NES 50 nM, pH 7.4, rounded, read-out: apparent KD); 4970 ± 1180 nM at CRM1^HA [4] (TFP/YFP-NES construct 50 nM, 20 mM Tris/HCl pH 7.4, 50 mM NaCl, 5 mM DTT, 2 mM MgCl2, at least three measurements per CRM1 concentration, read-out: apparent KD (C50)); 2380 ± 698 nM on CRM1^HA [2] (setting [5]); 2400 nM at CRM1^HA [2] (TFP-NES titrated onto CRM1^HA, 20 mM HEPES pH 7.4, rounded). In addition, on CRM1^HA [3], the “CRM1^HA binding in Ni-NTA chromatography” value was “not even detected in these conditions”. The substance also came in with a ΔH at CRM1^HA [2] (NES ligand titrated onto CRM1^HA, 20 mM HEPES pH 7.4) of -14.5 ± 6.2 kcal/mol. Also, the “-TΔS” value at CRM1^HA [2] (NES ligand titrated onto CRM1^HA, 20 mM HEPES pH 7.4, from ΔG = ΔH − TΔS) is 6.9 ± 6.1 kcal/mol. In addition, the “n (binding stoichiometry)” value at CRM1^HA [2] (NES ligand titrated onto CRM1^HA, 20 mM HEPES pH 7.4, low n of peptides might result from limited solubility) is 0.54 ± 0.27. On CRM1^HA [2] (NES ligand titrated onto CRM1^HA, 20 mM HEPES pH 7.4, ΔG = -RTlnKA), this substance came in with a ΔG of -7.6 ± 0.1 kcal/mol.
As to “nucleoplasmin: homologous protein nucleoplasmin”, the Kd at importin α/β is 57 nM.
Take “residues 42–61: candidate NES motif in the core domain of NPM (LSLRTVSLGAGAKDELHIVE; UniProt P06748 42-61, looked up, fragment)”: the “binding to CRM1” value in the test on CRM1 is “no binding to CRM1”.

(Values after paper PMC4474691, “Leukemia-Associated Mutations in Nucleophosmin Alter Recognition by CRM1: Molecular Basis of Aberrant Transport” (PLoS ONE, 2015).)
